Test results from patent US20210347813A1, “COMPOUNDS WITH HIV MATURATION INHIBITORY ACTIVITY” (priority 2018, published 2021).

Columns and labels:
[1] = Rat PK after single intramuscular (IM) administration of prodrugs, parent MI #1 measured in plasma; type: in vivo; parameters: unit not given here; details: male SD rats, IM 20 mg/kg
From the text: FIG. 2 is a concentration vs time curve of the plasma concentrations of parent MI #1 following a single Intramuscular (IM) administration of the Prodrugs and parent MI #1 to male SD rats. […] Additional pharmacokinetic data collected from the same experiments summarized in FIG. 2 is contained in the table below.
Animal strain: Sprague Dawley (SD) rat, purchased from Shanghai SLAC Laboratory Animal Co., Ltd. Sex: male; Age: 6-8 weeks; BW: 200-250 g, N=30 rats (N=3 per prodrug); Food status: Free access to food and water for the entire in-life phase.
Dose: 20 mg/kg (2 mL/kg, 10 mg/mL), IM injection; Formulation: 1% Kolliphor P188+4.5% Mannitol+94.5% Milli-Q Water;
N=3 rats/time point for each compound via IM administration
Sampling at 0.5, 1, 3, 5 and 7 hr, 1, 2, 3, 4, 5, 6 and 7 days post dose then 2×/week for a total of 8 weeks, 12*8 time points, serial bleeding for plasma only.
* Weekly interim analysis of the plasma samples (12 time points) to get an early read on the PK of the construct Blood collection and processing: The animal was restrained manually and approximately 150 μL blood per time point was collected in tubes containing K2EDTA anticoagulant. The sample was centrifuged at 2200 g for 10 min at 2-8° C. for plasma. The plasma samples were stored immediately at −70° C.
LC-MS/MS method was developed to quantitate both prodrugs and parent in plasma. The samples were analyzed in duplicate. Two sets of standard curves and three levels of QCs were run in each plate. Both the standards and QCs were run in duplicate.
WinNonlin V 6.4 statistics software (Pharsight Corporation, California, USA) was used to generate pharmacokinetics parameters (Tmax, Cmax, T1/2, AUC, MRT etc).

[2] = system: HIV; details: cited from earlier work
[3] = Mouse PK after subcutaneous (SQ) suspension doses, MI #3 measured in plasma; type: in vivo; details: male CD-1 mice, SQ 20 mg/kg suspension, MI Parent #3 measured in plasma
Experimental: FIG. 1 is a graph of concentration vs. time from plasma of MI #3 in ng/mL vs time in hours following subcutaneous (SQ) doses of MI3 # or the prodrugs from Examples 3, 4, and 5 as suspensions in 1% Kolliphor P 188/2% PEG 3350/3.5% Mannitol/93.5% water at 20 mg/kg to male CD-1 mice. […] Exposure of Parent MI #3 decreased 23-fold, 16-fold, and 3-fold after administration of Example 3, 4 and 5, respectively. The presence of the prodrugs was not observed in plasma. Although the exposure is lower than when dosed with parent itself, the half-life of Parent MI #3 is longer after administration of all three prodrugs showing the potential to be useful for less frequent dosing.
Subcutaneous (SQ) doses of each of the compounds from Examples 3, 4, and 5 as suspensions (Dose conc. 4 mg/mL, Dose volume 5 mL/kg) in 1% Kolliphor P 188/2% PEG 3350/3.5% Mannitol/93.5% water at 20 mg/kg to 3 male CD-1 mice (Cr1:CD1 (ICR)) Charles River Laboratories, 25-30gs at dose initiation, age as appropriate for weight. The concentration of Parent MI #3 and prodrugs were measured in the plasma of animals of all three groups at time points of 0.5, 1, 3, 5, 7, 24, 48, 72, 96, 120, 144, and 168 hours. The collection conditions were K2EDTA and the volume/timepoint was 30 μL. The presence of the prodrugs was not observed in plasma for any group.
LC-MS/MS methods were developed to quantitate both prodrugs and parent in plasma. The samples were analyzed in duplicate. Two sets of standard curves and three levels of QCs were run in each plate. Both the standards and QCs were run in duplicate. The table below is a summary of the protocols and guidance that was supplied to the scientists who carried out the experiments.

[4] = Single dose mouse PK study, oral dose of prodrug or parent, parent MI #3 measured; type: in vivo; details: male CD1 mice, PO 5 mg/kg
Experimental: A single dose mouse PK study was conducted following an oral dose of the prodrug that was prepared as Example 1, being dosed and measuring parent maturation inhibitor (MI) #3, and compared to PK parameters with Parent MI #3 being dosed in male CD1 mice. In the current study, the formulation for parent MI #3 was 0.5% Methocel A4M:0.1% Tween 80:99.4% water. For the prodrug of Example 1, the formulation was 2% Dimethylacetamide:10% ethanol: 87.5% PEG 400:0.5% Tween 80.
Following oral administration of the prodrug, all prodrug concentrations at all timepoints were BLQ. As shown in the table below the exposure of the parent MI #3 obtained from dosing the prodrug was higher than that seen with dosing a crystalline suspension of the parent MI #3.

[5] = MI Parent #3 mouse PK, IV solution; type: in vivo; details: dose 1 (printed mg)

C=C(C)[C@@H]1CC[C@]2(NCCN3CCS(=O)(=O)CC3)CC[C@]3(C)[C@H](CC[C@@H]4[C@@]5(C)CC=C(C6=CC[C@@](CF)(C(=O)OCOC(=O)CCCCC)CC6)C(C)(C)[C@@H]5CC[C@]43C)[C@@H]12 [Example 18, (Hexanoyloxy)methyl (R)-4-((1R,3aS,5aR,5bR,7aR,11aS,11bR,13aR,13bR)-3a-((2-(1,1-dioxidothiomorpholino)ethyl)amino)-5a,5b,8,8,11a-pentamethyl-1-(prop-1-en-2-yl)-2,3,3a,4,5,5a,5b,6,7,7a,8,11,11a,11b,12,13,13a,13b-octadecahydro-1H-cyclopenta[a]chrysen-9-yl)-1-(fluoromethyl)cyclohex-3-ene-1-carboxylate]
AUCINF (day) [1]: 2100

C=C(C)[C@@H]1CC[C@]2(C(=O)O)CC[C@]3(C)[C@H](CC[C@@H]4[C@@]5(C)CC[C@H](OC(=O)CC(C)(C)C(=O)O)C(C)(C)[C@@H]5CC[C@]43C)[C@@H]12 [Bevirimat]
reduction of HIV viral load (mean) ([2]; patients with trough levels >=20 μg/mL and no key baseline Gag polymorphisms at Q369, V370 or T371): 1.3 log10/mL
viral load reduction vs patients without Gag polymorphisms ([2]; users with Gag polymorphisms at Q369, V370 or T371): significantly lower load reductions

C=C(C)[C@@H]1CC[C@]2(NCCN3CCS(=O)(=O)CC3)CC[C@]3(C)[C@H](CC[C@@H]4[C@@]5(C)CC=C(C6=CC[C@@](CF)(C(=O)OCOC(=O)CCCCCCC)CC6)C(C)(C)[C@@H]5CC[C@]43C)[C@@H]12 [Example 19, (Octanoyloxy)methyl (R)-4-((1R,3aS,5aR,5bR,7aR,11aS,11bR,13aR,13bR)-3a-((2-(1,1-dioxidothiomorpholino)ethyl)amino)-5a,5b,8,8,11a-pentamethyl-1-(prop-1-en-2-yl)-2,3,3a,4,5,5a,5b,6,7,7a,8,11,11a,11b,12,13,13a,13b-octadecahydro-1H-cyclopenta[a]chrysen-9-yl)-1-(fluoromethyl)cyclohex-3-ene-1-carboxylate]
AUCINF (day) [1]: 1393

C=C(C)[C@@H]1CC[C@]2(NCCN3CCS(=O)(=O)CC3)CC[C@]3(C)[C@H](CC[C@@H]4[C@@]5(C)CC=C(C6=CC[C@@](CF)(C(=O)OCOC(=O)C(C)C)CC6)C(C)(C)[C@@H]5CC[C@]43C)[C@@H]12 [Example 21, (Isobutyryloxy)methyl (R)-4-((1R,3aS,5aR,5bR,7aR,11aS,11bR,13aR,13bR)-3a-((2-(1,1-dioxidothiomorpholino)ethyl)amino)-5a,5b,8,8,11a-pentamethyl-1-(prop-1-en-2-yl)-2,3,3a,4,5,5a,5b,6,7,7a,8,11,11a,11b,12,13,13a,13b-octadecahydro-1H-cyclopenta[a]chrysen-9-yl)-1-(fluoromethyl)cyclohex-3-ene-1-carboxylate]
AUCINF (day) [1]: 1682

C=C(C)[C@@H]1CC[C@]2(NCC[C@]3(O)CC[C@@H](S(C)(=O)=O)CC3)CC[C@]3(C)[C@H](CC[C@@H]4[C@@]5(C)CC=C(C6=CC[C@@](COc7ncccc7C#N)(C(=O)O)CC6)C(C)(C)[C@@H]5CC[C@]43C)[C@@H]12 [Parent MI #3, (S)-1-(((3-cyanopyridin-2-yl)oxy)methyl)-4-((1R,3aS,5aR,5bR,7aR,11aS,11bR,13aR,13bR)-3a-((2-((1s,4R)-1-hydroxy-4-(methylsulfonyl)cyclohexyl)ethyl)amino)-5a,5b,8,8,11a-pentamethyl-1-(prop-1-en-2-yl)-2,3,3a,4,5,5a,5b,6,7,7a,8,11,11a,11b,12,13,13a,13b-octadecahydro-1H-cyclopenta[a]chrysen-9-yl)cyclohex-3-enecarboxylic acid]
%AUCextra [3]: 12.3%
AUClast [3]: 449442 ng·h/mL
AUCtot [3]: 515257 ng·h/mL
Bioavailability [3]: 35 % F
Cmax [3]: 6563 ng/mL
t(1/2) [3]: 58.3 h
AUC0-24h norm [4]: 3.7 μg/mL *h/dose
AUC0-last [4]: 18000 ng·h/mL
Bioavailability [4]: 5.0 % F
C24 [4]: 0.03 µg/mL
Cmax [4]: 1300 ng/mL
Tmax [4]: 4.7 h
%AUCextra [5]: 24.8%
AUClast [5]: 64197 ng·h/mL
AUCtot [5]: 87808 ng·h/mL
Clearance [5]: 0.20 mL/min/kg
MRT [5]: 22.2 h
Vss [5]: 0.25 L/kg
t(1/2) [5]: 16.3 h
